# Experimental data from PubChem BioAssay (NCI).
#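 Tested at 5 concentrations; 48 h exposure; 96-well plates; endpoints linearly interpolated, else capped at highest concentration. TGI: concentration producing complete growth inhibition.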
# Legend:
# Assay in all cases: NCI-60 cell line screen, 48 h
# [1] = system: HOP-92 NSCLC
# [2] = system: IGROV1 ovarian
# [3] = system: DU-145 prostate
# [4] = system: MALME-3M melanoma
# [5] = system: UO-31 renal
# [6] = system: BT-549 breast
# [7] = system: SF-268 CNS
# [8] = system: RXF 393 renal
# [9] = system: K-562 leukemia
# [10] = system: KM12 colon
# [11] = system: MCF7 breast
# [12] = system: PC-3 prostate
# [13] = system: SF-295 CNS
# [14] = system: RPMI-8226 leukemia
# [15] = system: NCI-H460 lung
# [16] = system: NCI-H522 lung
# [17] = system: SK-MEL-5 melanoma
# [18] = system: COLO 205 colon
# [19] = system: M14 melanoma
# [20] = system: SNB-75 CNS
# [21] = system: MOLT-4 leukemia
# [22] = system: HCT-116 colon
# [23] = system: A549 NSCLC
# [24] = system: MDA-MB-231 breast
# [25] = system: T-47D breast
# [26] = system: CAKI-1 renal
# [27] = system: MDA-N
# [28] = system: SF-539 CNS
# [29] = system: SW-620 colon
# [30] = system: MDA-MB-435
# [31] = system: TK-10 renal
# [32] = system: NCI/ADR-RES ovarian
# [33] = system: LOX IMVI melanoma
# [34] = system: OVCAR-3 ovarian
# [35] = system: SN12C renal
# [36] = system: UACC-257 melanoma
# [37] = system: OVCAR-5 ovarian
# [38] = system: ACHN renal
# [39] = system: HCT-15 colon
# [40] = system: SK-MEL-28 melanoma
# [41] = system: OVCAR-4 ovarian
# [42] = system: UACC-62 melanoma
# [43] = system: 786-0 renal
# [44] = system: U251 CNS
# [45] = system: NCI-H23 lung
# [46] = system: HT29 colon
# [47] = system: SR leukemia
# [48] = system: A498 renal
# [49] = system: HOP-62 NSCLC
# [50] = system: HS 578T breast
# [51] = system: SNB-19 CNS
# [52] = system: CCRF-CEM leukemia
# [53] = system: HCC-2998 colon
# [54] = system: SK-MEL-2 melanoma
# [55] = system: EKVX NSCLC
# [56] = system: OVCAR-8 ovarian
# [57] = system: HL-60(TB) leukemia
# [58] = system: NCI-H226 lung
# [59] = system: SK-OV-3 ovarian
smiles,measurement,setting,value
C[C@@H]1CCC2[C@@H](C)C(=O)O[C@@H]3C4C[C@@H]1[C@@]23OO[C@@]4(C)O (some centres not stated),TGI,[1],> 100 µM
same,TGI,[2],> 100 µM
same,TGI,[3],> 100 µM
same,TGI,[4],> 100 µM
same,TGI,[5],94 µM
same,TGI,[6],> 100 µM
same,TGI,[7],> 100 µM
same,TGI,[8],> 100 µM
same,TGI,[9],> 100 µM
same,TGI,[10],> 100 µM
same,TGI,[11],> 100 µM
same,TGI,[12],> 100 µM
same,TGI,[13],> 100 µM
same,TGI,[14],> 100 µM
same,TGI,[15],> 100 µM
same,TGI,[16],> 100 µM
same,TGI,[17],> 100 µM
same,TGI,[18],> 100 µM
same,TGI,[19],> 100 µM
same,TGI,[20],> 100 µM
same,TGI,[21],> 100 µM
same,TGI,[22],> 100 µM
same,TGI,[23],> 100 µM
same,TGI,[24],> 100 µM
same,TGI,[25],> 100 µM
same,TGI,[26],> 100 µM
same,TGI,[27],> 100 µM
same,TGI,[28],> 100 µM
same,TGI,[29],> 100 µM
same,TGI,[30],> 100 µM
same,TGI,[31],> 100 µM
same,TGI,[32],> 100 µM
same,TGI,[33],62.7 µM
same,TGI,[34],> 100 µM
same,TGI,[35],> 100 µM
same,TGI,[36],> 100 µM
same,TGI,[37],> 100 µM
same,TGI,[38],> 100 µM
same,TGI,[39],> 100 µM
same,TGI,[40],> 100 µM
same,TGI,[41],> 100 µM
same,TGI,[42],> 100 µM
same,TGI,[43],> 100 µM
same,TGI,[44],> 100 µM
same,TGI,[45],> 100 µM
same,TGI,[46],> 100 µM
same,TGI,[47],> 100 µM
same,TGI,[48],> 100 µM
same,TGI,[49],> 100 µM
same,TGI,[50],> 100 µM
same,TGI,[51],> 100 µM
same,TGI,[52],> 100 µM
same,TGI,[53],> 100 µM
same,TGI,[54],> 100 µM
same,TGI,[55],> 100 µM
same,TGI,[56],> 100 µM
Cc1cn(C2CC(N=[N+]=[N-])C(CO[Si](C)(C)C(C)(C)C)O2)c(=O)[nH]c1=O (configuration not stated),TGI,[2],37.3 µM
same,TGI,[3],45.1 µM
same,TGI,[4],28.1 µM
same,TGI,[5],30.7 µM
same,TGI,[6],23.7 µM
same,TGI,[7],45.8 µM
same,TGI,[8],32.3 µM
same,TGI,[9],47.6 µM
same,TGI,[10],32.5 µM
same,TGI,[11],58 µM
same,TGI,[12],38.9 µM
same,TGI,[13],34.6 µM
same,TGI,[14],47.1 µM
same,TGI,[16],35.6 µM
same,TGI,[17],32.4 µM
same,TGI,[18],35.6 µM
same,TGI,[19],41.5 µM
same,TGI,[20],42.9 µM
same,TGI,[21],> 100 µM
same,TGI,[22],29.6 µM
same,TGI,[23],87.8 µM
same,TGI,[24],29.5 µM
same,TGI,[25],75.6 µM
same,TGI,[26],37.1 µM
same,TGI,[27],34.2 µM
same,TGI,[28],35.6 µM
same,TGI,[29],35.7 µM
same,TGI,[30],38.2 µM
same,TGI,[31],30.5 µM
same,TGI,[57],72.4 µM
same,TGI,[32],36 µM
same,TGI,[33],31.5 µM
same,TGI,[34],34.9 µM
same,TGI,[35],30.4 µM
same,TGI,[36],42 µM
same,TGI,[37],49.1 µM
same,TGI,[38],48 µM
same,TGI,[39],37.9 µM
same,TGI,[41],28.1 µM
same,TGI,[42],29.8 µM
same,TGI,[43],29.1 µM
same,TGI,[44],33 µM
same,TGI,[58],29.6 µM
same,TGI,[45],40.2 µM
same,TGI,[46],32.4 µM
same,TGI,[47],56.8 µM
same,TGI,[48],30.7 µM
same,TGI,[49],34.1 µM
same,TGI,[50],40.1 µM
same,TGI,[59],37.1 µM
same,TGI,[51],38.3 µM
same,TGI,[52],60.9 µM
same,TGI,[53],26.5 µM
same,TGI,[54],33.8 µM
same,TGI,[55],58.1 µM
same,TGI,[56],37.1 µM
